Test results taken from US20060127980A1, “Human excitatory amino acid transporter-2 gene promoter and uses thereof” (priority 2003, published 2006).
Values belong to the molecule of their own block, whether it stands above or below them.

Tests used:
Assay type in all cases: cell-based, human
[1] = tested on: hEAAT2 promoter activity, mRNA levels and protein levels; assay: Pathway-specific inhibitors on modulated hEAAT2 promoter activity, mRNA and protein in PHFA; conditions: PDTC 100 μM, PD 50 μM; for effect on EGF (or TGF-α) enhancement of hEAAT2 promoter activity, mRNA and protein levels: EGF 30 ng/ml; for effect on EGF (or TGF-α) enhancement of hEAAT2 promoter activity, mRNA and protein levels / effect on bromo-cAMP (or dbcAMP) enhancement of hEAAT2 expression: KT5720 5 μM, AG1478 1 μM, wortmannin 100 nM; for effect on bromo-cAMP (or dbcAMP) enhancement of hEAAT2 expression: bromo-cAMP 250 μM
Description: (§1) FIG. 5A-E. Effect of pharmacological inhibitors on hEAAT2 promoter activity, and mRNA and protein expression in PHFA following various treatment protocols. A. hEAAT2 promoter activity in PHFA, either untreated (−) or treated with EGF (30 ng/ml), in the absence (−) or presence (+) of KT5720 (5 μM), AG1478 (1 μM), PDTC (100 μM), wortmannin (WRT) (100 nM) or PD98049 (PD) (50 μM). B. hEAAT2 promoter activity in PHFA, either untreated (−) or treated with bromo-cAMP (250 μM) in the absence (−) or presence (+) of KT5720 (5 μM), AG1478 (1 μM), PDTC (100 μM), wortmannin (WRT) (100 nM) or PD98049 (PD) (50 μM). C. hEAAT2 promoter activity in PHFA, either untreated (−) or treated with TNF-α (200 U/ml), in the absence (−) or presence (+) of KT5720 (5 μM), AG1478 (1 μM), PDTC (100 μM), wortmannin (WRT) (100 nM) or PD98049 (PD) (50 μM). D. The effect of the various treatment protocols on hEAAT2 and GAPDH mRNA levels. Upper panel presents relative hEAAT2 RNA expression versus GAPDH expression relative to control untreated or treated samples based on scanning of autoradiograms. Lower panel, actual Northern blots. E. The effect of the various treatment protocols on EAAT2 and ACTIN protein levels. Upper panel presents relative EAAT2 protein expression versus ACTIN expression relative to control untreated or treated samples based on scanning of autoradiograms. Individual experiments were performed 3 times using triplicate samples and S.D. from the mean is presented.
Biochemical Basis for Positive and Negative Regulation of hEAAT2 Expression in PHFA. To define the biochemical pathways relevant to the regulation of hEAAT2 expression in PHFA resulting from the different treatment protocols, a pharmacological approach was employed. This involved the use of well-characterized pathway-specific inhibitors and determining effects on hEAAT2 promoter activity, mRNA levels and protein levels (FIG. 5). The inhibitors included, KT5720 (a protein kinase A. (PKA) inhibitor), AG1478 (a tyrosine kinase inhibitor), worttnannin (a phosphatidylinositol 3-kinase (PI-3K) inhibitor), pyrrolidinedithiocarbamate (PDTC, an inhibitor of NF-κB activation) and PD98059 (a mitogen-activated kinase (MEK1/MEK2) inhibitor) (Zelenaia et al., 2000, Mol Pharmacol 57(4):667-678).

hEAAT2 mRNA = assay: Northern blot of hEAAT2 mRNA in PHFA treated with modulators; conditions: for hEAAT2 mRNA expression: 7-day treatment, EGF 30 ng/ml, TGF-α 30 ng/ml, dbcAMP 200 μM, bromo-cAMP 100 μM, TNF-α 200 U/ml
Description: (§2) FIG. 4A-D. Effect of modulators of hEAAT2 activity on hEAAT2 expression and hEAAT2 promoter activity in PHFA. A. A Northern analysis of hEAAT2 and GAPDH mRNA expression following treatment with EGF (30 ng/ml), TGF-α (30 ng/ml), dbcAMP (200 μM, bromo-cAMP (100 μM) or TNF-α (200 U/ml) for 7 days. B. Nuclear run-on assays determining the relative rates of hEAAT2 and GAPDH transcription as a function of 7-day treatment with the same concentrations of the indicated agents. C. A time course of mRNA expression of hEAAT2 and GAPDH following treatment with EGF, bromo-cAMP or TNF-α (same concentrations as in A.). D. Fold luciferase activity in PHFA transfected with flhEAAT2Prom-luc or various deletion mutants of hEAAT2 and non-transfected controls treated with the indicated compounds for four days.
(§3) Northern and Western Blotting Assays. Total cellular RNA was isolated by the guanidinium/phenol extraction method and Northern blotting was performed as described (Huang et al., 2001, Oncogene 20(48):7051-7063; Su et al., 2000, Oncogene 19(30):3411-3421; Su et al., 2001, Nucleic Acids Res 29(8):1661-1671). Western blotting assays were performed as described (Su et al., 1998, Proc Natl Acad Sci USA 95(24):14400-14405; Su et al., 2002, Oncogene 21(22):3592-602).
Positive and Negative Regulation of hEAAT2 Transcription, Promoter Activity and mRNA Levels in PHFA. Several enhancers of GLT-1 expression in rat astrocytes have been identified, including epidermal growth factor (EGF), transforming growth factor-α (TGF-α) and dibutyryl cyclic AMP (dbcAMP) (Swanson et al., 1997, J Neurosci 17(3):932-940; Zelenaia et al., 2000, Mol Pharmacol 57(4):667-678). Based on these considerations, experiments were performed to determine if these agents similarly modify human hEAAT2 expression in PHFA. Consistent with previous observations in rat astrocytes, 7-day treatment with EGF, TGF-α, and two analogs of cAMP, dbcAMP and bromo-cAMP, stimulated hEAAT2 mRNA expression in PHFA, whereas TNF-α decreased expression (FIG. 4B). […] In contrast, TNF-α decreased expression by 48 h (FIG. 4C).

hEAAT2 transcription = assay: Nuclear run-on assay of hEAAT2 transcription in PHFA; conditions: 7-day treatment
Description: as §2
Primer Extension Analysis and Nuclear Run-on Assays. Primer extension assays were performed as described (Su et al., 2000, Oncogene 19(30):3411-3421). A primer with the sequence 5′-[…]-3′ (SEQ ID NO:6) complementary to the 5′ UTR of the hEAAT2 cDNA was used for this assay. Nuclear run-on assays were performed as described (Su et al., 1997, Proc Natl Acad Sci USA 94(17):9125-9130).
To examine whether stimulation of hEAAT2 expression involves transcriptional changes, nuclear run-on assays were performed.

hEAAT2 promoter = assay: flhEAAT2Prom-luc and deletion mutant luciferase reporter assay in PHFA treated with modulators; conditions: deletion mutant; for stimulation of promoter activity after deletion of bp −2426 to bp −703 / upregulation of promoter activity after deletion of bp −703 to bp −326: four day treatment
Description: as §2
Construction of hEAAT2 Promoter Deletion Mutants and Performance of the Luciferase Assays. 5′-deletion mutants of the hEAAT2 promoter were made with exonuclease III digestion using the Erase-A-Base System (Promega) as described for the PEG-3 promoter (Su et al., 2000, Oncogene 19(30):3411-3421). The flhEAAT2Prom-luc and flhEAAT2Prom-luc deletion mutants were cloned into the pGL3-basic luciferase reporter vector (Promega) and luciferase reporter assays were performed as described (Su et al., 2000, Oncogene 19(30):3411-3421; Su et al., 2001, Nucleic Acids Res 29(8):1661-1671), except that instead of using lipofectamine, which was toxic to PHFA, the calcium phosphate precipitation transfection technique was used (Babiss et al., 1986, Proc Natl Acad Sci USA 83(7):2167-2171).
Preferential Expression of the hEAAT2 Promoter in PHFA and Deletion Analysis of the hEAAT2 Promoter. hEAAT2 is expressed in brain-derived cells, mainly astrocytes (Tanaka et al., 1997, Science 276(5319):1699-1702; Anderson et al., 2000, Glia 32(1):1-14). Experiments were performed to confirm hEAAT2 promoter activity in normal human astrocytes and to determine expression levels in other cell types (FIG. 2A). Primary early passage and established human normal and tumor cell lines were co-transfected with a putative full-length ˜2.5 kb hEAAT2 promoter, a SacII fragment extending from bp −2426 to bp +44, was cloned into the pGL3-basic vector (Promega), where it drove expression of the firefly luciferase (luc) gene, and a pSV-β-galactosidase expression plasmid. Relative fold expression of a full length hEAAT2 promoter-luciferase (flhEAAT2Prom-luc) construct was determined as described (Su et al., 2000, Oncogene 19(30):3411-3421; Su et al., 2001, Nucleic Acids Res 29(8):1661-1671), and activity versus transfection with a pSV-β-galactosidase plasmid was calculated as described (Su et al., 2000, Oncogene 19(30):3411-3421; Su et al., 2001, Nucleic Acids Res 29(8):1661-1671) to equalize for differences in transfection efficiency.
To examine further the relationship between hEAAT2 and treatment with the various glutamate transporter modulators, transient transfection assays were performed in PHFA using the flhEAAT2Prom-luc constructs and various deletions thereof (FIG. 4D). […] In the case of dbcAMP, promoter activity was enhanced by ˜3-fold.

hEAAT2 protein = assay: Western blot of EAAT2 protein in PHFA
Description: as §1, §3

Molecule: COc1cc2ncnc(Nc3cccc(Cl)c3)c2cc1OC [AG1478]
effect on EGF (or TGF-α) enhancement of hEAAT2 promoter activity, mRNA and protein levels [1]: abolished | effect on bromo-cAMP (or dbcAMP) enhancement of hEAAT2 expression [1]: unaffected

Molecule: CCCCCCOC(=O)[C@]1(O)C[C@@H]2O[C@@]1(C)n1c3ccccc3c3c4c(c5c6ccccc6n2c5c31)C(=O)NC4 [KT5720]
effect on EGF (or TGF-α) enhancement of hEAAT2 promoter activity, mRNA and protein levels [1]: unaffected | effect on bromo-cAMP (or dbcAMP) enhancement of hEAAT2 expression [1]: eliminated

Molecule: COc1cccc(-c2cc(=O)c3ccccc3o2)c1N [PD98059]
effect on EGF (or TGF-α) enhancement of hEAAT2 promoter activity, mRNA and protein levels [1]: significantly inhibited but not extinguished | effect on bromo-cAMP (or dbcAMP) enhancement of hEAAT2 expression [1]: partially inhibited | effect on TNF-α-decreased hEAAT2 promoter, mRNA and protein levels ([1]; cotreatment with TNF-α 200 U/ml): partial restoration of normal levels of hEAAT2 protein

Molecule: Nc1ncnc2c1nc(Br)n2[C@@H]1O[C@@H]2COP(=O)(O)O[C@H]2[C@H]1O [bromo-cAMP]
hEAAT2 mRNA expression (hEAAT2 mRNA): stimulated | time of highest (maximum) hEAAT2 mRNA upregulation (hEAAT2 mRNA; time course): 48 h | time by which hEAAT2 mRNA expression was changed (hEAAT2 mRNA; time course, bromo-cAMP enhanced, TNF-α decreased): ≤ 24 h | relative rate of transcription of hEAAT2 RNA compared with GAPDH (hEAAT2 transcription): elevated | stimulation of promoter activity after deletion of bp −2426 to bp −703 (hEAAT2 promoter): did not significantly decrease | upregulation of promoter activity after deletion of bp −703 to bp −326 (hEAAT2 promoter): most relevant | hEAAT2 protein levels (hEAAT2 protein): upregulated

stimulation of promoter activity after deletion of bp −2426 to bp −703 (hEAAT2 promoter): did not significantly decrease
Molecule: EGF: epidermal growth factor, from Invitrogen
hEAAT2 mRNA expression (hEAAT2 mRNA): stimulated | time of highest (maximum) hEAAT2 mRNA upregulation (hEAAT2 mRNA; time course): 48 h | relative rate of transcription of hEAAT2 RNA compared with GAPDH (hEAAT2 transcription): elevated | promoter activity after further deletion of bp −326 to bp −120 (hEAAT2 promoter): did not result in any additional reduction | upregulation of promoter activity after deletion of bp −703 to bp −326 (hEAAT2 promoter): a level approximating that found in uninduced PHFA | hEAAT2 protein levels (hEAAT2 protein): upregulated

stimulation of promoter activity after deletion of bp −2426 to bp −703 (hEAAT2 promoter): did not significantly decrease
Molecule: TGF-α: transforming growth factor-α, from Invitrogen
hEAAT2 mRNA expression (hEAAT2 mRNA): stimulated | relative rate of transcription of hEAAT2 RNA compared with GAPDH (hEAAT2 transcription): elevated | promoter activity after further deletion of bp −326 to bp −120 (hEAAT2 promoter): did not result in any additional reduction | upregulation of promoter activity after deletion of bp −703 to bp −326 (hEAAT2 promoter): a level approximating that found in uninduced PHFA | hEAAT2 protein levels (hEAAT2 protein): upregulated
